The source of these data is patent US12391751B2, “Antibody against advanced glycation end products and use thereof” (Bloom Technology Corporation, priority 2018, dated 2025).

The subject of experiment [1] is POD-labeled novel monoclonal antibody (SJ-5). Nature of the experiment: Competitive ELISA of GAL13, GLAP, Z-Lys-OH against SJ-5 (Example 13). The following applies: immobilized Glycer-AGEs-BSA; competitor 0.0063 to 2 mg/mL. The class given is binding, mouse. Here is the method:
A solution of BSA containing AGEs derived from glyceraldehyde (stock solution: 10 mg/mL PBS solution) prepared into 1 μg/mL in a coating solution was added at 100 μL/well to a 96-well microtiter plate (COSTAR) and incubated overnight at 4° C.
(§1) Each well after the immobilization treatment was washed three times with a washing solution (300 μL), and a blocking solution (200 μL) was added thereto and left at room temperature for 1 hour.
GAL13 (prepared in Example 2), GLAP (prepared in Example 12), and Z-Lys-OH (Tokyo Chemical Industry Co., Ltd.) were each dissolved in a phosphate buffer solution (0.2 M, pH 7.4) to prepare a 20 mg/mL solution. Sample solutions of 2-fold dilution series from 0.0063 to 2 mg/mL (6 points) were further prepared by dilution with a diluting solution. A POD-labeled novel monoclonal antibody (SJ-5) solution was diluted 16,000-fold with a diluting solution containing BSA (1 mg/mL, FUJIFILM Wako Pure Chemical Corp.) to prepare a POD-labeled SJ-5 antibody dilution solution. […]
Absorbance was measured at a dominant wavelength of 450 nm and a sub-wavelength of 650 nm with a microplate reader (Cytation 5, BioTek Instrument Inc.), and the absorbance at the sub-wavelength was subtracted from the absorbance at the dominant wavelength.
(In general: In an ELISA, binding on a coated surface is turned into a signal by an enzyme label.)

Experiment [2] has as its system PB-1 antibody. Nature of the experiment: Competitive ELISA of GAL691 and known AGEs against PB-1 (Example 31). The class given is binding, mouse. The following applies: immobilized A-peak-BSA; competitor 0.04 to 2.5 mM; PB-1 0.1 μg/mL. Here is the method: Competitive ELISA was conducted using the reagents described in Example 13. A solution of A-peak-BSA prepared into 1 μg/mL in a coating solution was added at 100 μL/well to a 96-well microtiter plate (Costar) and incubated overnight at 4° C.
as §1
GAL691 (prepared in Example 16), GLAP (prepared in Example 12), Lys-hydroxy-triosidine (prepared in Example 17), GA-pyridine (prepared in Example 28), GOLD (prepared in Example 29), and Z-Lys were each dissolved in a phosphate buffer solution (0.2 M, pH 7.4) to prepare a 100 mM solution. Then, a 10 mM solution was prepared by dilution 10-fold with a diluting solution containing BSA (1 mg/mL, FUJIFILM Wako Pure Chemical Corp.). Sample solutions of 4-fold dilution series of 0.04, 0.16, 0.63, and 2.5 mM were further prepared with a diluting solution containing a 10% (v/v) phosphate buffer solution and 1 mg/mL BSA. Ten-fold dilutions of a phosphate buffer solution with a diluting solution containing 1 mg/mL BSA were prepared as blank solutions containing no sample in the same way as above. A 0.1 μg/mL solution of the PB-1 antibody was prepared with a diluting solution containing 1 mg/mL BSA.
Each well treated with the blocking solution was washed three times with a washing solution (300 μL), and the sample solutions of 4-fold dilution series (50 μL each) and the PB-1 antibody dilution solution (50 μL) were added thereto, stirred with a plate mixer for 2 minutes, and then incubated at room temperature for 1 hour.
After the competitive reaction, each well was washed three times with a washing solution (300 μL), and peroxidase-labeled anti-mouse IgG (H+L) polyclonal antibody, F(ab′)2 fragment (Kirkegaard & Perry Laboratories, Inc.) diluted into 0.05 μg/mL with a diluting solution containing 1 mg/mL BSA was added at 100 μL/well and left standing at room temperature for 1 hour.
After washing three times with a washing solution (300 μL), a substrate solution (ELISA POD substrate TMB kit (Popular), Nacalai Tesque, Inc.) was added at 100 μL/well and incubated at room temperature for 10 minutes under light shielding. Then, color development was terminated by the addition of 2 N sulfuric acid (50 μL).
Absorbance was measured at a dominant wavelength of 450 nm and a sub-wavelength of 650 nm with a microplate reader (Cytation 5, BioTek Instrument Inc.), and the absorbance at the sub-wavelength was subtracted from the absorbance at the dominant wavelength. Change in the absorbance of GAL691, GLAP, Lys-hydroxy-triosidine, GA-pyridine, GOLD, and Z-Lys was indicated as relative values to the absorbance of the blank solution.

SMILES strings stand for the structures.

As for `CC(=O)N[C@@H](CCCC[n+]1cc(O)cc(CO)c1)C(=O)O` [GLAP], in experiment [1], the “change in absorbance (competition for SJ-5 binding)” value is reported as “reduction in absorbance was observed for neither”. Further, the “change in absorbance relative to blank (competition for PB-1 binding)” value (“change in absorbance relative to blank” below) in experiment [2] is on record as “no reduction in absorbance was observed”.

As to `NCCCC[C@H](NC(=O)OCc1ccccc1)C(=O)O` [Z-Lys-OH, N^α-Carbobenzoxy-L-lysine], the “change in absorbance (competition for SJ-5 binding)” value in experiment [1] is “reduction in absorbance was observed for neither”. Further, the “change in absorbance relative to blank” value in experiment [2] is “no reduction in absorbance was observed”.

In the case of `CC(=O)NC(CCCCn1cc[n+](CCCCC(NC(C)=O)C(=O)O)c1)C(=O)O` (stereo not drawn) [GOLD], the “change in absorbance relative to blank” value in experiment [2] is reported as “no reduction in absorbance was observed”.

`CC(=O)NC(CCCC[n+]1ccc(CO)c(O)c1)C(=O)O` (stereo not drawn) [GA-pyridine]: the “change in absorbance relative to blank” value in experiment [2] is reported as “no reduction in absorbance was observed”.
